Data reported in patent US6890940B2, “Bis(2-aryl-5-pyridyl) derivatives” (Kowa Co., Ltd., priority 2001, dated 2005).
Counter-ions that a name gives are not always drawn. Like-named read-outs stand apart in the source and are kept apart here. Marks after values point to notes of the source that are not given here.

What was measured:
IgE antibody production = test: Evaluation of IgE antibody production inhibiting activity (mouse spleen B cells stimulated with LPS and IL-4, IgE in supernatant by ELISA); assay type: cell-based; conditions: B-cell; mouse (Balb/C) spleen B cells, LPS + mouse IL-4, drug added Day 1, IgE in culture supernatant by ELISA
Description: Test 1 (Evaluation of IgE Antibody Production Inhibiting Activity)
From a mouse (Balb/C, male, 8 weeks old), the spleen was enucleated. The spleen was shredded in 10% FBS/RPMI 1640, and was then disintegrated into single cells through a 70-mesh screen. Those single cells were hemolyzed with Gey's solution, and using RPMI 1640 medium/25 mM HEPES/0.3% BSA, a spleen cell suspension (1×10^7 cells/mL) was prepared. After an aliquot of the suspension was reacted with a rat anti-mouse Thy-1.2 monoclonal antibody (product of Cedarlane Laboratories Limited) at 4° C. for 1 hour, centrifugation was conducted. Precipitated cells were suspended again (1×10^7 cells/mL, RPMI/HEPES/BSA). After the suspension was next reacted with a low-cytotoxic rabbit complement (product of Cedarlane Laboratories Limited) at 37° C. for 1 hour, dead cells were removed by specific gravity centrifugation using Lympholyte M (product of Cedarlane Laboratories Limited) so that a B cell fraction was obtained as viable cells. […]
The IgE antibody production inhibiting activity of each drug was calculated by adding the drug Day 1 of the incubation and assaying the quantity of IgE in the culture supernatant by ELISA after the incubation.

[1] = Solubility of each compound in water; assay type: physicochemical
Text: Further, the solubility (%) of each compound in water was also estimated.

[2] = Solubility of each compound in water; assay type: physicochemical; conditions: in 1M hydrochloric acid (footnote *)

Row | Compound | IC50 (IgE antibody production) [nM] | Solubility [1] [%] | Solubility [2]
1 | COc1cc(-c2ccc(N3CCCN(c4ccc(-c5cc(OC)c(OC)c(OC)c5)nc4)CC3)cn2)cc(OC)c1OC [Example 30, 1,4-Bis[2-(3,4,5-trimethoxyphenyl)-5-pyridyl]hexahydro-1,4-diazepine dimethanesulfonate] | 100 | 0.1 | 
2 | COc1cc(-c2ccc(N(C)CCCN(C)c3ccc(-c4cc(OC)c(OC)c(OC)c4)nc3)cn2)cc(OC)c1OC [Example 37, N,N′-Bis[2-(3,4,5-trimethoxyphenyl)-5-pyridyl]-N,N′-dimethyl-1,3-propanediamine dimethanesulfonate] | 100 | 10 | 
3 | COc1cc(-c2ccc(N(C)CCN(C)CCN(C)c3ccc(-c4cc(OC)c(OC)c(OC)c4)nc3)cn2)cc(OC)c1OC [Example 42, N,N-Bis[N-[2-(3,4,5-trimethoxyphenyl)-5-pyridyl]-N-methyl-2-aminoethyl]methylamine trihydrochloride.] | 100 | 10 | 
4 | COc1cc(-c2ccc(N(C)CCCN(C)CCCN(C)c3ccc(-c4cc(OC)c(OC)c(OC)c4)nc3)cn2)cc(OC)c1OC [Example 43, N,N-Bis[N-[2-(3,4,5-trimethoxyphenyl)-5-pyridyl]-N-methyl-3-aminopropyl]methylamine] | 100 |  | 10* %
5 | COc1cc(-c2ccc(NCCOCCNc3ccc(-c4cc(OC)c(OC)c(OC)c4)nc3)cn2)cc(OC)c1OC [Example 44, Bis[N-[2-(3,4,5-trimethoxyphenyl)-5-pyridyl]-2-aminoethyl]ether dimethanesulfonate] | 100 | 10 | 
6 | COc1cc(-c2ccc(N(C)CCCN(C)CCCN(C)c3ccc(-c4cc(OC)c(OCC(F)(F)F)c(OC)c4)nc3)cn2)cc(OC)c1OCC(F)(F)F [Example 57, N,N-Bis[N-[2-(3,5-dimethoxy-4-(2,2,2-trifluoroethoxy)phenyl]-5-pyridyl]-N-methyl-3-aminopropyl]methylamine trihydrochloride] | 100 | 1 | 

These reach a lower IC50 (IgE antibody production). Values come first.

Row | IC50 (IgE antibody production) [nM] | Solubility [1] [%] | Solubility [2] | Compound
7 | 80 | 10 |  | COc1cc(-c2ccc(N(C)CC(C)(C)CN(C)c3ccc(-c4cc(OC)c(OC)c(OC)c4)nc3)cn2)cc(OC)c1OC [Example 39, N,N′-Bis[2-(3,4,5-trimethoxyphenyl)-5-pyridyl]-N,N′,2,2-tetramethyl-1,3-propanediamine dimethanesulfonate]
8 | 50 |  | 0.1* % | COc1cc(-c2ccc(N(C)CC(O)CN(C)c3ccc(-c4cc(OC)c(OC)c(OC)c4)nc3)cn2)cc(OC)c1OC [Example 41, 2-hydroxy-N,N′-bis[2-(3,4,5-trimethoxyphenyl)-5-pyridyl]-N,N′-dimethyl-1,3-propanediamine]
9 | 50 | 0.1 |  | COc1cc(-c2ccc(N3CCN(c4ccc(-c5cc(OC)c(OC)c(OC)c5)nc4)C(CN(C)C)C3)cn2)cc(OC)c1OC (stereo not drawn) [Example 47, 2-(Dimethylamino)methyl-1,4-bis[2-(,3,4,5-trimethoxyphenyl)-5-pyridyl]piperazine trihydrochloride]
10 | 40 | 5 |  | COc1cc(-c2ccc(N(C)CCN(C)c3ccc(-c4cc(OC)c(OC)c(OC)c4)nc3)cn2)cc(OC)c1OC [Example 7, N,N′-Bis[2-(3,4,5-trimethoxyphenyl)-5-pyridyl]-N,N′-dimethylethylenediamine dimethanesulfonate]
11 | 40 | 0.1 |  | COc1cc(-c2ccc(N(C)CCN(C)c3ccc(-c4cc(OC)c(O)c(OC)c4)nc3)cn2)cc(OC)c1O [Example 14, N,N′-Bis[2-(4-hydroxy-3,5-dimethoxyphenyl)-5-pyridyl]-N,N′-dimethylethylenediamine dimethanesulfonate]
12 | 30 | 10 |  | CCN(CCN(CC)c1ccc(-c2cc(OC)c(OC)c(OC)c2)nc1)c1ccc(-c2cc(OC)c(OC)c(OC)c2)nc1 [Example 36, N,N′-Bis[2-(3,4,5-trimethoxyphenyl)-5-pyridyl]-N,N′-diethylethylenediamine dimethanesulfonate]
